The assay addresses T1, murine MCHR (Mus musculus, UniProt Q8JZL2).
T1 construct: expressed in transfected cells; host or cells: HEK293
Description: Assay for release of intracellular calcium (FLIPR, Fluo-4), inhibition of MCH-induced Ca++ flux. The assay is classed as cell-based. As to conditions: test compound at a dose of 10 μM, HEK293 cells expressing the murine MCHR, read-out: inhibition of MCH (MCH induced Ca++ flux / fluorescence). As to the method:
Assay for Release of Intracellular Calcium
Activation of the melanin concentrating hormone receptor (MCHR) by MCH induces the release of Ca^++ from intracellular stores. This intracellular calcium release is measured using a fluorometric imaging plate reader (FLIPR™, Molecular Devices Corp.) in conjunction with the Ca^++-sensitive dye Fluo-4. Release of Ca^++ from intracellular stores causes an increase in fluorescence of the dye that is proportional to Ca^++ concentration. Briefly, the assays are performed as follows. HEK293 cells expressing the murine MCHR are plated overnight at 50,000 cells/well in 96-well plates. The following day, culture medium is removed and replaced with 100 μl/well of D-PBS (+glucose and sodium pyruvate) containing 2.5 μM Fluo-4AM (Molecular Probes), 0.01% Pluronic F-127 and 2.5 mM probenecid. Cells are loaded with the Fluo-4 dye for at least one hour at room temp. After loading, the cells are washed gently to remove extracellular dye and 100 μl of D-PBS (+glucose and sodium pyruvate) is added to each well. Test compounds are prepared at 40 μM in 4% DMSO. The cell plate is placed in the FLIPR™ and 50 μl/well of test compound is delivered. The calcium signal is followed for 3 minutes to assay for potential agonist activity by the test compounds. Then 50 μl/well of 12 nM mouse MCH (in D-PBS containing 0.1% BSA) is added and the ligand-induced calcium signal is followed for an additional 3 minutes. Antagonist activity as determined by the test compounds ability to inhibit MCH induced Ca^++ flux is calculated as % inhibition as described by the following formula: % inhibition=[1−((fTC−fB)÷(fMCH−fB))]×100, where fTC=MCH-induced fluorescence in the presence of test compound; fMCH=MCH-induced fluorescence in the absence of test compound; and fB=Baseline fluorescence.
MCH (3 nM) usually elicits a response of 30,000-40,000 relative fluorescence units (RFU) with a baseline of about 1000 RFU. Fluo-4 fluorescence is measured at 488 nm, with an exposure of 0.40 sec. and F-stop=2.0 and the laser set at 0.40-0.60 W constant light output.
T1 sequence (Q8JZL2 whole entry): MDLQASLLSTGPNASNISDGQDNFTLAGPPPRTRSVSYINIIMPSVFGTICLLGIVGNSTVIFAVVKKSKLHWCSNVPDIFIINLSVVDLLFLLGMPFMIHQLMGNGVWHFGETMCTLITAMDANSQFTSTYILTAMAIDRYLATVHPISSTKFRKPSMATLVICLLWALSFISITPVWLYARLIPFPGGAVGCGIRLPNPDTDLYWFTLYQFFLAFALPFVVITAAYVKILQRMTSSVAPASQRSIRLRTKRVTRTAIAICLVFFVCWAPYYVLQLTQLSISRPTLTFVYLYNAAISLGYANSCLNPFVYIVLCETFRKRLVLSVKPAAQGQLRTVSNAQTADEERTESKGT
For `Cn1c(=O)cc(NC2CCN(C/C=C/c3ccccc3)CC2)c2cc(Cl)ccc21` [Compound V-29, 6-Chloro-1-methyl-4-[1-(3-phenyl-allyl)-piperidin-4-ylamino]-1H-quinolin-2-one], the inhibition at 10 µM was ≥ 50%.

For `COC(=O)c1c(NC2CCN(Cc3ccc4ccccc4c3)CC2)c2cc(Cl)ccc2n(C)c1=O` [Compound V-30, 6-Chloro-1-methyl-4-(1-naphthalen-2-ylmethyl-piperidin-4-ylamino)-2-oxo-1,2-dihydro-quinoline-3-carboxylic acid methyl ester], the inhibition at 10 µM is ≥ 50%. For `Cn1c(=O)cc(NC2CCN(Cc3ccc4c(c3)OCO4)CC2)c2cc(C(F)(F)F)ccc21` [Compound V-31, 4-(1-Benzo[1,3]dioxol-5-ylmethyl-piperidin-4-ylamino)-1-methyl-6-trifluoromethyl-1H-quinolin-2-one] the value was ≥ 50%; for `COc1ccc(CN2CCC(Nc3c(C#N)c(=O)n(C)c4ccc(Cl)cc34)CC2)cc1F` [Compound V-32, 6-Chloro-4-[1-(3-fluoro-4-methoxy-benzyl)-piperidin-4-ylamino]-1-methyl-2-oxo-1,2-dihydro-quinoline-3-carbonitrile], ≥ 50%; for `Cn1c(=O)cc(NC2CCN(Cc3ccc4occc4c3)CC2)c2cc(C(F)(F)F)ccc21` [Compound V-33, 4-(1-Benzofuran-5-ylmethyl-piperidin-4-ylamino)-1-methyl-6-trifluoromethyl-1H-quinolin-2-one], ≥ 50%. Regarding `CC(c1ccc2c(c1)OCO2)N1CCC(Nc2c(C(=O)N(C)C)c(=O)n(C)c3ccc(Cl)cc23)CC1` (stereo not shown) [Compound V-34, 4-[1-(1-Benzo[1,3]dioxol-5-yl-ethyl)-piperidin-4-ylamino]-6-chloro-1-methyl-2-oxo-1,2-dihydro-quinoline-3-carboxylic acid dimethylamide], the inhibition at 10 µM is ≥ 50%. Regarding `O=c1cc(NC2CCN(Cc3ccncc3)CC2)c2cc(Cl)ccc2n1Cc1ccncc1` [Compound V-35, 6-Chloro-1-pyridin-4-ylmethyl-4-(1-pyridin-4-ylmethyl-piperidin-4-ylamino)-1H-quinolin-2-one], the inhibition at 10 µM is ≥ 50%. For `O=c1cc(NC2CCN(Cc3ccc4c(c3)OCO4)CC2)c2cccc3c2n1CCC3` [Compound V-36, 1-(1-Benzo[1,3]dioxol-5-ylmethyl-piperidin-4-ylamino)-6,7-dihydro-5H-pyrido[3,2,1-ij]quinolin-3-one] the value was ≥ 50%; for `COC(=O)c1c(NC2CCN(Cc3ccc4ccccc4c3)CC2)c2cc(Cl)ccc2[nH]c1=O` [Compound V-37, 6-Chloro-4-(1-naphthalen-2-ylmethyl-piperidin-4-ylamino)-2-oxo-1,2-dihydro-quinoline-3-carboxylic acid methyl ester], ≥ 50%. For `Cc1ccc2c(c1)c(NC1CCN(C/C=C/c3ccccc3)CC1)cc(=O)n2C` [Compound V-38, 1,6-Dimethyl-4-[1-(3-phenyl-allyl)-piperidin-4-ylamino]-1H-quinolin-2-one] the value was ≥ 50%; for `COC(=O)c1c(NC2CCN(Cc3ccc4c(c3)OCO4)CC2)c2cc(Cl)ccc2n(C)c1=O` [Compound V-39, 4-(1-Benzo[1,3]dioxol-5-ylmethyl-piperidin-4-ylamino)-6-chloro-1-methyl-2-oxo-1,2-dihydro-quinoline-3-carboxylic acid methyl ester], ≥ 50%. On to `CN(C)C(=O)c1c(NC2CCN(Cc3ccc4occc4c3)CC2)c2cc(Cl)ccc2n(C)c1=O` [Compound V-40, 4-(1-Benzofuran-5-ylmethyl-piperidin-4-ylamino)-6-chloro-1-methyl-2-oxo-1,2-dihydro-quinoline-3-carboxylic acid dimethylamide], for which the inhibition at 10 µM was ≥ 50%. Under `CN(C)C(=O)c1c(NC2CCN(Cc3ccc4c(c3)OCO4)CC2)c2cc(Br)ccc2n(C)c1=O` [Compound V-42, 4-(1-Benzo[1,3]dioxol-5-ylmethyl-piperidin-4-ylamino)-6-bromo-1-methyl-2-oxo-1,2-dihydro-quinoline-3-carboxylic acid dimethylamide] stands ≥ 50%; under `CC(C)c1ccc2c(c1)c(NC1CCN(Cc3ccc4c(c3)OCO4)CC1)cc(=O)n2C` [Compound V-43, 4-(1-Benzo[1,3]dioxol-5-ylmethyl-piperidin-4-ylamino)-6-isopropyl-1-methyl-1H-quinolin-2-one], ≥ 50%. Under `O=c1cc(NC2CCN(C/C=C/c3ccccc3)CC2)c2ccccc2n1Cc1ccccc1` [Compound V-44, 1-Benzyl-4-[1-(3-phenyl-allyl)-piperidin-4-ylamino]-1H-quinolin-2-one] stands ≥ 50%; under `Cn1c(=O)cc(NC2CCN(Cc3ccc4ccccc4c3)CC2)c2cc(O)ccc21` [Compound V-46, 6-Hydroxy-1-methyl-4-(1-naphthalen-2-ylmethyl-piperidin-4-ylamino)-1H-quinolin-2-one], ≥ 50%; under `Cn1c(=O)cc(NC2CCN(C/C=C/c3ccccc3)CC2)c2ccccc21` [Compound V-47, 1-Methyl-4-[1-(3-phenyl-allyl)-piperidin-4-ylamino]-1H-quinolin-2-one], ≥ 50%. For `Cn1c(=O)c(C2=NC(C)(C)CO2)c(NC2CCN(Cc3ccc4c(c3)OCO4)CC2)c2cc(Cl)ccc21` [Compound V-49, 4-(1-Benzo[1,3]dioxol-5-ylmethyl-piperidin-4-ylamino)-6-chloro-3-(4,4-dimethyl-4,5-dihydro-oxazol-2-yl)-1-methyl-1H-quinolin-2-one] the value was ≥ 50%. For `Cn1c(=O)c(C#N)c(NC2CCN(Cc3ccc4c(c3)OCO4)CC2)c2cc(Cl)ccc21` [Compound V-51, 4-(1-Benzo[1,3]dioxol-5-ylmethyl-piperidin-4-ylamino)-6-chloro-1-methyl-2-oxo-1,2-dihydro-quinoline-3-carbonitrile], the inhibition at 10 µM is ≥ 50%. Under `CON(C)C(=O)c1c(NC2CCN(Cc3ccc4c(c3)OCO4)CC2)c2cc(Cl)ccc2n(C)c1=O` [Compound V-52, 4-(1-Benzo[1,3]dioxol-5-ylmethyl-piperidin-4-ylamino)-6-chloro-1-methyl-2-oxo-1,2-dihydro-quinoline-3-carboxylic acid methoxy-methyl-amide] stands ≥ 50%. For `N#Cc1c(NC2CCN(Cc3ccc4ccccc4c3)CC2)c2cc(Cl)ccc2[nH]c1=O` [Compound V-53, 6-Chloro-4-(1-naphthalen-2-ylmethyl-piperidin-4-ylamino)-2-oxo-1,2-dihydro-quinoline-3-carbonitrile] the value was ≥ 50%; for `COc1ccc(CN2CCC(Nc3c(C(=O)N(C)C)c(=O)n(C)c4ccc(Cl)cc34)CC2)cc1F` [Compound V-54, 6-Chloro-4-[1-(3-fluoro-4-methoxy-benzyl)-piperidin-4-ylamino]-1-methyl-2-oxo-1,2-dihydro-quinoline-3-carboxylic acid dimethylamide], ≥ 50%. For `O=c1cc(NC2CC3CCC(C2)N3Cc2ccc3c(c2)OCO3)c2cc(Cl)ccc2n1CC(F)(F)F` (stereo not shown) [Compound V-57] the value was ≥ 50%. In the case of `O=c1cc(NC2CCN(Cc3ccc4c(c3)OCO4)CC2)c2cc(C(F)(F)F)ccc2n1CC(F)(F)F` [Compound V-58, 4-(1-Benzo[1,3]dioxol-5-ylmethyl-piperidin-4-ylamino)-1-(2,2,2-trifluoro-ethyl)-6-trifluoromethyl-1H-quinoline-2-one], the inhibition at 10 µM is ≥ 50%. Under `Cn1c(=O)c(C(=O)N2CCCC2)c(NC2CCN(Cc3ccc4c(c3)OCO4)CC2)c2cc(Cl)ccc21` [Compound V-59, 4-(1-Benzo[1,3]dioxol-5-ylmethyl-piperidin-4-ylamino)-6-chloro-1-methyl-3-(pyrrolidine-1-carbonyl)-1H-quinolin-2-one] stands ≥ 50%. Under `COc1ccc2c(c1)c(NC1CCN(Cc3ccc4c(c3)OCO4)CC1)c(C(=O)N(C)C)c(=O)n2C` [Compound V-60, 4-(1-Benzo[1,3]dioxol-5-ylmethyl-piperidin-4-ylamino)-6-methoxy-1-methyl-2-oxo-1,2-dihydro-quinoline-3-carboxylic acid dimethylamide] stands ≥ 50%. Under `CCn1c(=O)cc(NC2CCN(C/C=C/c3ccccc3)CC2)c2cc(Cl)ccc21` [Compound V-63, 6-Chloro-1-ethyl-4-[1-(3-phenyl-allyl)-piperidin-4-ylamino]-1H-quinolin-2-one] stands ≥ 50%.

In the case of `COc1ccc2oc(=O)cc(NC3CCN(Cc4ccc5c(c4)OCO5)CC3)c2c1` [II-1, 4-(1-Benzo[1,3]dioxol-5-ylmethyl-piperidin-4-ylamino)-6-methoxy-chromen-2-one], the inhibition at 10 µM is ≥ 50%.

Source of the values: patent US6921821B2, “Antagonists of melanin concentrating hormone receptor” (Abbott Laboratories, priority 2002, dated 2005).
